We go through 8 compounds from ChEMBL document CHEMBL1914411, “Synthesis of lipophilic dimeric C-7/C-7-linked ciprofloxacin and C-6/C-6-linked levofloxacin derivatives. Versatile in vitro biological evaluations of monomeric and dimeric fluoroquinolone derivatives as potential antitumor, antibacterial or antimycobacterial agents” (Eur J Med Chem, 2011).

In general, MBC refers to the smallest concentration meeting the test's criterion for killing. A lower MBC goes with more potent killing. Broadly, the MIC is the lowest concentration that inhibits growth of the organism. The low end stands for inhibition by little substance, the high end for a need for much substance.

Converted amounts (≈) assume the structure as drawn. The source made the active and inactive calls.

Assay [1] has as its system Staphylococcus aureus. In words: Antimicrobial activity against Staphylococcus aureus CIP 4.83 after 18 to 24 hrs by broth microdilution method. The assay is classed as functional.
A further assay concerns Pseudomonas aeruginosa. The assay can be described thus: Antimicrobial activity against Pseudomonas aeruginosa CIP 82.118 after 18 to 24 hrs by broth microdilution method. The assay is classed as functional. (In general: In broth dilution the organism is exposed to a series of concentrations in liquid medium.)
The next assay relates to Enterococcus hirae. In words: Antimicrobial activity against Enterococcus hirae CIP 5855 after 18 to 24 hrs by broth microdilution method. The assay is classed as functional.
The subject of assay [2] is Staphylococcus aureus. In words: Antimicrobial activity against methicillin-resistant Staphylococcus aureus ATCC 33591 after 18 to 24 hrs by broth microdilution method. The assay is classed as functional.
Assay [3] has as its system Staphylococcus aureus. The assay can be described thus: Antimicrobial activity against methicillin-resistant Staphylococcus aureus ATCC 33592 after 18 to 24 hrs by broth microdilution method. The assay is classed as functional.
Assay [4] deals with Staphylococcus aureus. The assay can be described thus: Antimicrobial activity against multidrug-resistant Staphylococcus aureus isolate 1 after 18 to 24 hrs by broth microdilution method. The assay is classed as functional.
Another assay has as its system Escherichia coli. The assay can be described thus: Antimicrobial activity against Escherichia coli CIP 53126 after 18 to 24 hrs by broth microdilution method. The assay is classed as functional.
Assay [5] deals with Mycobacterium tuberculosis. In words: Antimycobacterial activity against Mycobacterium tuberculosis H37Rv assessed as growth inhibition at 0.1 uM after 6 days by MTT colorimetric microassay. The assay is classed as functional, organism-based.
Assay [6] relates to Staphylococcus aureus. The assay can be described thus: Antimicrobial activity against multidrug-resistant Staphylococcus aureus isolate 2 after 18 to 24 hrs by broth microdilution method. The assay is classed as functional.
The subject of assay [7] is Mycobacterium tuberculosis. The assay can be described thus: Antimycobacterial activity against Mycobacterium tuberculosis H37Rv assessed as growth inhibition at 10 uM after 6 days by MTT colorimetric microassay. The assay is classed as functional. To be noted: for inhibition of growth at 10 µM: 144 h, read-out: GI.

In the case of `CC(C)(C)OC(=O)N1CCN(c2cc3c(cc2F)c(=O)c(C(=O)O)cn3C2CC2)CC1`, the MBC in the assay with Staphylococcus aureus [1] was at most 0.24 µM; against Pseudomonas aeruginosa it was 250 µM (≈ 108 µg/mL); in the assay on Enterococcus hirae, 15.6 µM (≈ 6.73 µg/mL); with Staphylococcus aureus [2], 0.48 µM (≈ 0.207 µg/mL); against Staphylococcus aureus [3], 0.48 µM (≈ 0.207 µg/mL); against Staphylococcus aureus [4] it was 500 µM (≈ 216 µg/mL). The figures for the MBC with Escherichia coli and in the assay with Staphylococcus aureus [6] were 1.9 µM (≈ 0.82 µg/mL) and 31.2 µM (≈ 13.5 µg/mL), respectively. Further, the MIC against Staphylococcus aureus [1] is at most 0.12 µM; in the assay on Pseudomonas aeruginosa, 15.6 µM (≈ 6.73 µg/mL); against Enterococcus hirae, 15.6 µM (≈ 6.73 µg/mL); in the assay with Staphylococcus aureus [2], 0.06 µM (≈ 0.0259 µg/mL); in the assay with Staphylococcus aureus [3], 0.12 µM (≈ 0.0518 µg/mL); against Staphylococcus aureus [4], 31.2 µM (≈ 13.5 µg/mL). Moreover, the results for the MIC against Escherichia coli and against Staphylococcus aureus [6] were 1.9 µM (≈ 0.82 µg/mL) and 15.6 µM (≈ 6.73 µg/mL), respectively. In addition, the “growth inhibition (GI)” value in [5] is “inactive”.

Consider `O=C(O)c1cn(C2CC2)c2cc(N3CCN(C(=O)CCCCCCCCC(=O)N4CCN(c5cc6c(cc5F)c(=O)c(C(=O)O)cn6C5CC5)CC4)CC3)c(F)cc2c1=O`, for which the MBC in the assay on Staphylococcus aureus [1] stood at 250 µM (≈ 207 µg/mL); with Pseudomonas aeruginosa, 125 µM (≈ 104 µg/mL); in the assay with Enterococcus hirae, 250 µM (≈ 207 µg/mL); in the assay on Escherichia coli, 250 µM (≈ 207 µg/mL). Also, the MIC in the assay on Staphylococcus aureus [1] worked out at 250 µM (≈ 207 µg/mL); against Pseudomonas aeruginosa, 62.5 µM (≈ 51.8 µg/mL); in the assay with Enterococcus hirae it was 250 µM (≈ 207 µg/mL); in the assay on Escherichia coli it was 250 µM (≈ 207 µg/mL). For the same compound, the “growth inhibition (GI)” value in [5] and in assay [7] was “inactive” throughout.

Consider `O=C(O)c1cn(C2CC2)c2cc(N3CCN(C(=O)CCCCCCCCCCCCCCCCC(=O)N4CCN(c5cc6c(cc5F)c(=O)c(C(=O)O)cn6C5CC5)CC4)CC3)c(F)cc2c1=O`, for which the MBC worked out at 500 µM (≈ 471 µg/mL) against Staphylococcus aureus [1], 250 µM (≈ 235 µg/mL) in the assay with Pseudomonas aeruginosa, 500 µM (≈ 471 µg/mL) with Enterococcus hirae and 500 µM (≈ 471 µg/mL) in the assay with Escherichia coli. The MIC against Staphylococcus aureus [1], against Pseudomonas aeruginosa, in the assay on Enterococcus hirae and against Escherichia coli was 125 µM (≈ 118 µg/mL) throughout. Also, the “growth inhibition (GI)” value in assay [5] and in assay [7] was “inactive” in each case.

On to `CC(=O)N1CCN(c2cc3c(cc2F)c(=O)c(C(=O)O)cn3C2CC2)CC1`, for which the MBC against Staphylococcus aureus [1] is 1.9 µM (≈ 0.709 µg/mL); in the assay with Pseudomonas aeruginosa it was 31.2 µM (≈ 11.6 µg/mL); in the assay on Enterococcus hirae it was 7.8 µM (≈ 2.91 µg/mL); against Staphylococcus aureus [2], 0.97 µM (≈ 0.362 µg/mL); with Staphylococcus aureus [3] it was 0.97 µM (≈ 0.362 µg/mL); in the assay with Staphylococcus aureus [4], 500 µM (≈ 187 µg/mL). Besides, the MBC in the assay on Escherichia coli was 1.9 µM (≈ 0.709 µg/mL); in the assay on Staphylococcus aureus [6], 62.5 µM (≈ 23.3 µg/mL). In addition, the MIC is at most 0.48 µM with Staphylococcus aureus [1]; 31.2 µM (≈ 11.6 µg/mL) against Pseudomonas aeruginosa; 7.8 µM (≈ 2.91 µg/mL) against Enterococcus hirae; 0.97 µM (≈ 0.362 µg/mL) against Staphylococcus aureus [2]; 0.48 µM (≈ 0.179 µg/mL) in the assay with Staphylococcus aureus [3]; 62.5 µM (≈ 23.3 µg/mL) in the assay with Staphylococcus aureus [4]. Further, the MIC in the assay with Escherichia coli stood at 1.9 µM (≈ 0.709 µg/mL); in the assay on Staphylococcus aureus [6], 31.2 µM (≈ 11.6 µg/mL). For the same compound, the “growth inhibition (GI)” value in assay [5] was “inactive”.

In the case of `CCCCCCCCCCCCCCNC(=O)c1cn2c3c(c(N4CCN(C)CC4)c(F)cc3c1=O)OC[C@@H]2C`, the MBC in the assay on Staphylococcus aureus [1] was found to be 31.2 µM (≈ 17.4 µg/mL); in the assay on Pseudomonas aeruginosa it was 250 µM (≈ 139 µg/mL); with Enterococcus hirae, 3.9 µM (≈ 2.17 µg/mL); in the assay on Escherichia coli, 250 µM (≈ 139 µg/mL). For the same compound, the MIC with Staphylococcus aureus [1] was 7.8 µM (≈ 4.34 µg/mL); in the assay on Pseudomonas aeruginosa, 62.5 µM (≈ 34.8 µg/mL); against Enterococcus hirae it was 3.9 µM (≈ 2.17 µg/mL); against Escherichia coli it was 125 µM (≈ 69.6 µg/mL). Besides, in assay [5], the “growth inhibition (GI)” value is “inactive”. Moreover, the inhibition of growth at 10 µM in assay [7] was above 95%.

For the compound `O=C(CCCCCCCCC(=O)OCN1CCN(c2cc3c(cc2F)c(=O)c(C(=O)O)cn3C2CC2)CC1)OCN1CCN(c2cc3c(cc2F)c(=O)c(C(=O)O)cn3C2CC2)CC1`, the minimum bactericidal concentration (MBC) with Staphylococcus aureus [1] was found to be 250 µM (≈ 222 µg/mL); in the assay with Pseudomonas aeruginosa, 125 µM (≈ 111 µg/mL); against Enterococcus hirae, 250 µM (≈ 222 µg/mL); in the assay with Escherichia coli it was 62.5 µM (≈ 55.6 µg/mL). In addition, the MIC in the assay with Staphylococcus aureus [1] came out at 31.2 µM (≈ 27.7 µg/mL); in the assay with Pseudomonas aeruginosa it was 31.2 µM (≈ 27.7 µg/mL); with Enterococcus hirae, 62.5 µM (≈ 55.6 µg/mL); with Escherichia coli, 31.2 µM (≈ 27.7 µg/mL). Further, the “growth inhibition (GI)” value in assay [5] is “inactive”. In addition, the inhibition of growth at 10 µM in assay [7] came out at 62%.

In the case of `C[C@H]1COc2c(N3CCN(C)CC3)c(F)cc3c(=O)c(C(=O)NCCCCCNC(=O)c4cn5c6c(c(N7CCN(C)CC7)c(F)cc6c4=O)OC[C@@H]5C)cn1c23`, the MBC came out at 500 µM (≈ 394 µg/mL) in the assay on Staphylococcus aureus [1], 250 µM (≈ 197 µg/mL) with Pseudomonas aeruginosa, 250 µM (≈ 197 µg/mL) in the assay on Enterococcus hirae and 62.5 µM (≈ 49.3 µg/mL) against Escherichia coli. Moreover, the MIC amounted to 125 µM (≈ 98.6 µg/mL) in the assay on Staphylococcus aureus [1], 62.5 µM (≈ 49.3 µg/mL) with Pseudomonas aeruginosa, 125 µM (≈ 98.6 µg/mL) against Enterococcus hirae and 62.5 µM (≈ 49.3 µg/mL) against Escherichia coli. Further, the “growth inhibition (GI)” value in [5] is “inactive”. The inhibition of growth at 10 µM in assay [7] came out at 60%.

Consider `O=C(O)c1cn(C2CC2)c2cc(N3CCN(C(=O)Cc4ccccc4)CC3)c(F)cc2c1=O`, for which the MBC in the assay on Staphylococcus aureus [1] is at most 0.24 µM; in the assay on Pseudomonas aeruginosa, 250 µM (≈ 112 µg/mL); in the assay with Enterococcus hirae, 7.8 µM (≈ 3.51 µg/mL); against Staphylococcus aureus [2], 0.24 µM (≈ 0.108 µg/mL); against Staphylococcus aureus [3], 0.24 µM (≈ 0.108 µg/mL); in the assay on Staphylococcus aureus [4] it was 62.5 µM (≈ 28.1 µg/mL). Moreover, the minimum bactericidal concentration (MBC) stood at 7.8 µM (≈ 3.51 µg/mL) with Escherichia coli and 15.6 µM (≈ 7.01 µg/mL) with Staphylococcus aureus [6]. The MIC against Staphylococcus aureus [1] is at most 0.12 µM; against Pseudomonas aeruginosa it was 62.5 µM (≈ 28.1 µg/mL); with Enterococcus hirae, 3.9 µM (≈ 1.75 µg/mL); with Staphylococcus aureus [2], 0.12 µM (≈ 0.0539 µg/mL); in the assay on Staphylococcus aureus [3] it was 0.12 µM (≈ 0.0539 µg/mL); in the assay on Staphylococcus aureus [4], 31.2 µM (≈ 14 µg/mL). The MIC amounted to 3.9 µM (≈ 1.75 µg/mL) against Escherichia coli and 15.6 µM (≈ 7.01 µg/mL) against Staphylococcus aureus [6]. In addition, the “growth inhibition (GI)” value in assay [5] is “inactive”.
